Experimental data taken from paper PMC4303209, “A novel phosphatidylinositol 3-kinase (PI3K) inhibitor directs a potent FOXO-dependent, p53-independent cell cycle arrest phenotype characterized by the differential induction of a subset of FOXO-regulated genes” (Breast Cancer Research : BCR, 2014).

System: MCF-7 breast cancer cells
Test: Microarray gene expression analysis (Agilent whole human genome 4 x 44K; compound vs DMSO, LIMMA log2 fold change)
Type: cell-based
Conditions: Apoptosis genes

Cn1ncc2c(N3CCOCC3)nc(-c3cccc(O)c3)nc21 [ETP-45658]
HSPD1 log2FC (Gene 3329): 0.324
HSPE1 log2FC (Gene 3336): -0.110
HTR2B log2FC (Gene 3357): -0.636
IAPP log2FC (Gene 3375): -0.105
ID1 log2FC (Gene 3397): -0.206
ID3 log2FC (Gene 3399): -0.237
IFI16 log2FC (Gene 3428): 0.357
IFI27 log2FC (Gene 3429): -0.362
IFIT2 log2FC (Gene 3433): 1.724
IFIT3 log2FC (Gene 3437): 0.389
IFNG log2FC (Gene 3458): -0.055
IGBP1 log2FC (Gene 3476): 0.248
IGF1 log2FC (Gene 3479): 0.046
IGF1R log2FC (Gene 3480): 0.075
IGF2R log2FC (Gene 3482): 0.109
IGFBP3 log2FC (Gene 3486): -0.114
IKBKB log2FC (Gene 3551): 0.231
IL1B log2FC (Gene 3553): -0.057
IL1RN log2FC (Gene 3557): -0.173
IL2 log2FC (Gene 3558): -0.036
IL4 log2FC (Gene 3565): -0.060
IL6 log2FC (Gene 3569): 0.421
IL6R log2FC (Gene 3570): 0.499
IL6ST log2FC (Gene 3572): 0.387
IL7 log2FC (Gene 3574): 0.329
IL10 log2FC (Gene 3586): -0.054
TNFRSF9 log2FC (Gene 3604): -0.082
ING2 log2FC (Gene 3622): 0.424
INHBA log2FC (Gene 3624): -0.426
INHBB log2FC (Gene 3625): -1.024
INS log2FC (Gene 3630): -0.159
INPP5D log2FC (Gene 3635): -0.052
INSL3 log2FC (Gene 3640): -0.299
IRAK1 log2FC (Gene 3654): -0.289
IRF1 log2FC (Gene 3659): -0.225
IRF3 log2FC (Gene 3661): -0.604
IRF5 log2FC (Gene 3663): 1.125
IRF7 log2FC (Gene 3665): 0.214
ITGA1 log2FC (Gene 3672): 0.199
ITGA5 log2FC (Gene 3678): -0.764
ITGAV log2FC (Gene 3685): 0.634
ITGB1 log2FC (Gene 3688): 0.722
ITPR1 log2FC (Gene 3708): 0.270
JAG2 log2FC (Gene 3714): 0.300
JAK2 log2FC (Gene 3717): 0.353
JAK3 log2FC (Gene 3718): -0.320
JUN log2FC (Gene 3725): -0.912
KCNMA1 log2FC (Gene 3778): 0.256
KNG1 log2FC (Gene 3827): -0.104
KPNA1 log2FC (Gene 3836): -0.177
KPNB1 log2FC (Gene 3837): 0.586
KRT8 log2FC (Gene 3856): -0.518
KRT18 log2FC (Gene 3875): -0.481
LCK log2FC (Gene 3932): -0.268
LEP log2FC (Gene 3952): -0.061
LGALS7 log2FC (Gene 3963): -0.300
LIG4 log2FC (Gene 3981): 0.100
LMNA log2FC (Gene 4000): -0.311
LMNB1 log2FC (Gene 4001): -0.133
LRP6 log2FC (Gene 4040): -0.141
LTBR log2FC (Gene 4055): -0.240
LTK log2FC (Gene 4058): -0.048
LYN log2FC (Gene 4067): -0.239
SMAD3 log2FC (Gene 4088): 0.254
SMAD6 log2FC (Gene 4091): -0.277
MAL log2FC (Gene 4118): -0.683
MAX log2FC (Gene 4149): -0.288
MCF2 log2FC (Gene 4168): 0.044
MCL1 log2FC (Gene 4170): -1.365
MDK log2FC (Gene 4192): -0.110
MDM2 log2FC (Gene 4193): -0.059
MECP2 log2FC (Gene 4204): -0.162
MEF2A log2FC (Gene 4205): -0.315
MEF2C log2FC (Gene 4208): 0.262
MEF2D log2FC (Gene 4209): -0.705
MAP3K5 log2FC (Gene 4217): -0.666
MEN1 log2FC (Gene 4221): -0.273
KITLG log2FC (Gene 4254): -0.228
MGMT log2FC (Gene 4255): -0.305
MIF log2FC (Gene 4282): 0.242
MLH1 log2FC (Gene 4292): 0.538
MAP3K9 log2FC (Gene 4293): -0.899
MAP3K10 log2FC (Gene 4294): 0.297
MAP3K11 log2FC (Gene 4296): -0.949
MMP9 log2FC (Gene 4318): -0.727
MNAT1 log2FC (Gene 4331): 0.729
MNT log2FC (Gene 4335): 1.624
MPO log2FC (Gene 4353): 0.046
CITED1 log2FC (Gene 4435): -0.078
MSH2 log2FC (Gene 4436): 0.939
MSX1 log2FC (Gene 4487): -0.324
MUC1 log2FC (Gene 4582): -0.901
MUC2 log2FC (Gene 4583): -0.262
MUC5AC log2FC (Gene 4586): -0.379
MUSK log2FC (Gene 4593): -0.344
MX1 log2FC (Gene 4599): 0.147
MYC log2FC (Gene 4609): 0.554
MYD88 log2FC (Gene 4615): -0.689
GADD45B log2FC (Gene 4616): 0.642
NBN log2FC (Gene 4683): 0.839
NDUFS1 log2FC (Gene 4719): 0.459
NF1 log2FC (Gene 4763): 0.412
NFATC4 log2FC (Gene 4776): 0.112
NFE2L2 log2FC (Gene 4780): 0.727
NFKB1 log2FC (Gene 4790): -0.122
NFKBIA log2FC (Gene 4792): -0.281
NGFR log2FC (Gene 4804): -0.063
NKX3-1 log2FC (Gene 4824): -0.261
NME1 log2FC (Gene 4830): 0.168
NME2 log2FC (Gene 4831): 0.216
NME3 log2FC (Gene 4832): -0.214
NMT1 log2FC (Gene 4836): -0.046
NODAL log2FC (Gene 4838): -0.110
NOS3 log2FC (Gene 4846): -0.420
NOTCH2 log2FC (Gene 4853): 0.166
NPM1 log2FC (Gene 4869): 0.586
NPTX1 log2FC (Gene 4884): -0.350
NPY5R log2FC (Gene 4889): -0.068
SLC11A2 log2FC (Gene 4891): 0.211
NRAS log2FC (Gene 4893): -0.204
NTF3 log2FC (Gene 4908): -1.251
NTRK2 log2FC (Gene 4915): -0.357
NR4A2 log2FC (Gene 4929): 0.761
OCLN log2FC (Gene 4950): 0.639
OPA1 log2FC (Gene 4976): 0.527
TNFRSF11B log2FC (Gene 4982): 0.707
OSM log2FC (Gene 5008): 0.056
P2RX1 log2FC (Gene 5023): -0.067
P2RX4 log2FC (Gene 5025): 0.236
P2RX7 log2FC (Gene 5027): -0.509
SERPINB2 log2FC (Gene 5055): -0.075
PAK1 log2FC (Gene 5058): 0.117
PAK2 log2FC (Gene 5062): -0.170
PARK2 log2FC (Gene 5071): -0.177
PAWR log2FC (Gene 5074): 0.858
PAX3 log2FC (Gene 5077): -0.277
PAX4 log2FC (Gene 5078): -0.139
PAX7 log2FC (Gene 5081): -0.260
PCNT log2FC (Gene 5116): 0.317
PDCD1 log2FC (Gene 5133): -0.432
PDCD2 log2FC (Gene 5134): -0.150
PDE1A log2FC (Gene 5136): -0.227
PDK1 log2FC (Gene 5163): 0.562
PDK2 log2FC (Gene 5164): 1.064
PDK4 log2FC (Gene 5166): 0.792
PDPK1 log2FC (Gene 5170): 0.541
PHB log2FC (Gene 5245): -0.244
SERPINB9 log2FC (Gene 5272): -0.261
SERPINB10 log2FC (Gene 5273): 0.731
PIK3CA log2FC (Gene 5290): 0.795
PIM1 log2FC (Gene 5292): 1.131
PIK3R1 log2FC (Gene 5295): 0.328
PLAGL1 log2FC (Gene 5325): 0.310
PLAGL2 log2FC (Gene 5326): -1.493
PLK1 log2FC (Gene 5347): -0.287
PLSCR1 log2FC (Gene 5359): 0.433
PMAIP1 log2FC (Gene 5366): -1.093
